# Assay results from patent US7576094B2, “Spiro derivatives as lipoxygenase inhibitors” (Eli Lilly and Company, priority 2004, dated 2009).
# Tests used:
# [1] = target: T1, human recombinant 5-Lipoxygenase (Homo sapiens, UniProt P09917); assay: 5-Lipoxygenase Enzyme Assay; assay type: biochemical; conditions: 70 μM arachidonic acid, 10 minute incubation at room temperature, FOX reagent, absorbance at 620 nm; read-out: inhibition of 5-Lipoxygenase with an IC50
# T1 sequence (P09917 1-674): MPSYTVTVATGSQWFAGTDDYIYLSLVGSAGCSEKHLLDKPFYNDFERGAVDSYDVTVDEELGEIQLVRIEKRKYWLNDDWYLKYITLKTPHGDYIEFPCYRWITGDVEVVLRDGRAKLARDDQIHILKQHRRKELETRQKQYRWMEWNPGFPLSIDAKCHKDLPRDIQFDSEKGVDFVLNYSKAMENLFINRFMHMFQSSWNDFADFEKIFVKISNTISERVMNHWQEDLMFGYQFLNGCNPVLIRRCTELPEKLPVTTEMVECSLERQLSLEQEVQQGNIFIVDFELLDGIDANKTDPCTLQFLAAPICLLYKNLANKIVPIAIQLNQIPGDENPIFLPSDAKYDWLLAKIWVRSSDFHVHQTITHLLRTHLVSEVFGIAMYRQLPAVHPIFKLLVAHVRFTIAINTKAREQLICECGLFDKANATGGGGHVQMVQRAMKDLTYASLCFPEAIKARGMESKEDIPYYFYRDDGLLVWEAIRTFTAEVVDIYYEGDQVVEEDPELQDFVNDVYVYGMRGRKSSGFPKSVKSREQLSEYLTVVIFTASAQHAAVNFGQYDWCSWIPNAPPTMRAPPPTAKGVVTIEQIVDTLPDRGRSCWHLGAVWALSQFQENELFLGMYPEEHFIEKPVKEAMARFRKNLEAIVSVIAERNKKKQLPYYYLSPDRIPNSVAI
# Summary of the method: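 Recombinant human 5-LOX in 50 mM Tris-HCl pH 7.4 was preincubated with compound, then 70 μM arachidonic acid was added for 10 min at room temperature. Hydroperoxide was read by FOX reagent (ferric xylenol orange, 1 h complex formation) as absorbance at 620 nm. Five concentrations in triplicate were tested, starting at 10 μM.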
# [2] = target: T2, porcine leukocyte 12/15-Lipoxygenase (Sus scrofa, UniProt P16469); assay: 12/15-Lipoxygenase Enzyme Assay; assay type: biochemical; conditions: 70 μM arachidonic acid, 10 minute incubation at room temperature, FOX reagent, absorbance at 620 nm; read-out: inhibition of 12/15-Lipoxygenase with an IC50
# T2 sequence (P16469 1-663): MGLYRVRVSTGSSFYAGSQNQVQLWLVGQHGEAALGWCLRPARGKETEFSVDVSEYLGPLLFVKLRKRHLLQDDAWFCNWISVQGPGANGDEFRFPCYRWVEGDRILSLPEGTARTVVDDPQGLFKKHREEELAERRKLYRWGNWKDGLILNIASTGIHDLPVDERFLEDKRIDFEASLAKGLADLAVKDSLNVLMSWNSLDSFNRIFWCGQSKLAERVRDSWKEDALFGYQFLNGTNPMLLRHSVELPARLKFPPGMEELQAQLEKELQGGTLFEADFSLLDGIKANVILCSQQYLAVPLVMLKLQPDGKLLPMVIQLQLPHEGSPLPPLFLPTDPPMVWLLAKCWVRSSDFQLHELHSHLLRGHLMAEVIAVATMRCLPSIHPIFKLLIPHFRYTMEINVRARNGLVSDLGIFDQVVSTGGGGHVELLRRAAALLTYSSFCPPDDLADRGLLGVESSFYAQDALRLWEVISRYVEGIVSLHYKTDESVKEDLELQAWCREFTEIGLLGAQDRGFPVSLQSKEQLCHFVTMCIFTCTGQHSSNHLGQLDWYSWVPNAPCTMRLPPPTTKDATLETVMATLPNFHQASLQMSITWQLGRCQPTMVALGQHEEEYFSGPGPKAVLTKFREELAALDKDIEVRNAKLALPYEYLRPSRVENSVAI
# Excerpt: This procedure was used for measuring the enzymatic activity of porcine leukocyte 12/15-Lipoxygenase using a […] method based on the ferric oxidation of xylenol orange.
# • 96 well flat bottom microfilter plates (VWR, Catalog # 62402-933 9295) • Lipoxygenase screening assay buffer (Cayman, Catalog # 760710) • Porcine leukocyte 12/15-Lipoxygenase (Cayman, Catalog # 60300) • Arachidonic Acid (Sigma, Catalog # A3555) • Xylenol orange tetrasodium salt (Aldrich, Catalog # 227854) • Iron (II) sulfate heptahydrate (Sigma, Catalog # F7002) • Sulfuric acid (95-98%) [18M] • Methanol Procedure
# Porcine Leukocyte 12/15-Lipoxygenase (Cayman Cat # 60300) was used in this assay. Test compound and/or vehicle was added to 1.3 μL 12/15-Lipoxygenase in 50 mM Tris-HCl buffer, pH 7.4. The reaction was initiated by addition of 70 μM arachidonic acid in Tris-HCl buffer, pH 7.4, and terminated after a 10 minute incubation at room temperature by addition of FOX reagent (25 mM sulfuric acid, 100 μM xylenol orange, 100 μM iron (II) sulfate, methanol:water 9:1). The yellow color of acidified xylenol orange was converted to a blue color by the lipid hydroperoxide-mediated oxidation of Fe^2+ ions and the interaction of the resulting Fe^3+ ions with the dye. The complex was allowed to form during a 1 hour incubation at room temperature with shaking. Absorbance of the Fe^3+ complex was then measured at […] using a spectrophotometer.
# Negative controls contained enzyme during the incubation step but substrate was not added until after the FOX reagent. Compounds are screened at 5 concentrations in triplicate starting at 10 μM
# [3] = test system: LTB4 production in human whole blood; assay: Inhibition of LTB4 Production in Blood; assay type: cell-based; conditions: 1 h, 20 μM A23187, 60 minutes at 37° C., LTB4 in plasma by ELISA, read-out: protection against LTB4 at an EC50
# Summary of the method: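 Citrated human whole blood preincubated 15 min at 37 °C with compound (top final 30 μM, 1:3 dilutions, quadruplicate), then stimulated with 20 μM A23187 for 60 min at 37 °C. Plasma LTB4 quantified by ELISA; IC50 from percent inhibition versus vehicle.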
# [4] = test system: release of the leukotriene LTB4 from a neutrophil cell line (MPRO cell line); assay: LTB4-Cell Assay; assay type: cell-based; conditions: Mus musculus, 1 h, read-out: inhibition of LTB4 with an EC50
# Excerpt: • This procedure was used for measuring the release of the leukotriene LTB4 from a neutrophil cell line using a competitive ELISA technique. Materials and Equipments Materials for Cell Preparation and Experiment • MPRO cell line (ATCC, Catalog # CRL-11422) • Calcium ionophore (A23187) (Sigma, Catalog # C7522) • Nordihydroguaiaretic acid (NDGA) (BioMol ,Catalog # EI101-0001) • Retinoic Acid (all-trans) (ATRA) (Sigma, Catalog # 95152) • Sterile, tissue-culture treated 96-well plates (Corning, Catalog # 3614) Materials for LTB4 ELISA • Precoated (Mouse Anti-Rabbit IgG) EIA 96 Well Strip Plates (Cayman, Catalog # 400004) • Leukotriene B4 AChE Tracer (Cayman Catalog # 420110) • Leukotriene B4 EIA Antiserum (Cayman Catalog # 420112) • Ellman's Reagent (Cayman Catalog # 400050) • EIA Buffer Concentrate (10×) (Cayman Catalog # 400060) • Wash Buffer Concentrate (400×) (Cayman Catalog # 400062) • Plastic plate covers (Cayman Catalog # 400012) Procedure
# A mouse promyelocytic cell line (MPRO) was used in this assay. These cells are committed immature neutrophils that can be differentiated into mature neutrophils by treatment with 10 μM all-trans retinoic acid for 72 hours.
# Following 72 hours of differentiation, cells were stimulated with 1 μM of a calcium ionophore (A23187) in the presence or absence of test compound or vehicle for 1 hour at 37° C. After this time, supernatant was removed from the cells and the LTB4 levels were determined following manufacturer's instructions, using a Leukotriene B4 EIA kit from Cayman (Cat # 5201 11). The negative controls were media samples from differentiated but un-stimulated cells. The compounds were screened at 5 concentrations in quadruplicate starting at 10 μM.
Structure (SMILES),IC50 [1],IC50 [2],EC50 [3],EC50 [4]
"Cc1c(O)cc2c(c1C)N(c1cccc(O)c1)CC1(CCC1)C2 [1′-(3-hydroxyphenyl)-7′,8′-dimethyl-2′,4′-dihydro-1′H-spiro[cyclobutane-1,3′-quinolin]-6′-ol]",< 0.3 µM,< 5 µM,–,–
"Cc1c(O)cc2c(c1C)N(c1ccc(Cl)cc1)CC1(CCC1)C2O (stereo not shown) [1′-(4-chlorophenyl)-7′,8′-dimethyl-2′,4′-dihydro-1′H-spiro[cyclobutane-1,3′-quinoline]-4′,6′-diol]",–,< 5 µM,–,–
"Cc1c(O)cc2c(c1C)N(c1ccc(F)cc1)CC1(CCC1)C2 [1′-(4-fluorophenyl)-7′,8′-dimethyl-2′,4′-dihydro-1′H-spiro[cyclobutane-1,3′-quinolin]-6′-ol]",–,< 5 µM,–,–
"COc1ccc(N2CC3(CCC3)Cc3cc(O)c(C)c(C)c32)cc1 [1′-(4-methoxyphenyl)-7′,8′-dimethyl-2′,4′-dihydro-1′H-spiro[cyclobutane-1,3′-quinolin]-6′-ol]",–,< 5 µM,–,–
"CCN1CC2(CCC2)Cc2cc(O)c(C)c(C)c21 [1′-ethyl-7′,8′-dimethyl-2′,4′-dihydro-1′H-spiro[cyclobutane-1,3′-quinolin]-6′-ol]",–,< 5 µM,–,–
"COc1cc2c(c(C)c1C)N(c1ccc(O)cc1)CC1(CCC1)C2 [4-(6′-methoxy-7′,8′-dimethyl-2′,4′-dihydro-1′H-spiro[cyclobutane-1,3′-quinoline]-1′-yl)phenol]",< 0.3 µM,< 5 µM,–,–
"Cc1c(C)c2c(c(C)c1OC(=O)CN1CCN(C)CC1)CCC1(CCC1)O2 [5,7,8-trimethyl-3,4-dihydrospiro[chromene-2,1′-cyclobutan]-6-yl-2-(4-methylpiperazin-1-yl)acetate]",–,< 5 µM,–,–
"Cc1c(O)c(CCc2ccc3ccccc3n2)c(C)c2c1CCC1(CCC1)O2 [5,8-dimethyl-7-(2-(quinolin-2-yl)ethyl)spiro[chroman-2,1′-cyclobutan]-6-ol]",–,< 5 µM,–,–
"COc1c(C(C)(C)C)cc2c(c1C)CC1(CCC1)CN2c1ccc(O)cn1 [6-(7′-tert-butyl-6′-methoxy-5′-methyl-2′,4′-dihydro-1′H-spiro[cyclobutane-1,3′-quinoline]-1′-yl)pyridin-3-ol]",–,< 5 µM,–,–
"Cc1c(C)c2c(c(C)c1O)C(C#N)CC1(CCC1)O2 (stereo not shown) [6-hydroxy-5,7,8-trimethyl-3,4-dihydrospiro[chromene-2,1′-cyclobutane]-4-carbonitrile]",< 0.3 µM,–,< 10 µM,< 5 µM
"Cc1cc2c(c(C)c1O)/C(=N/O)CC1(CCC1)O2 [6-hydroxy-5,7-dimethylspiro[chromene-2,1′-cyclobutan]-4(3H)-one oxime]",< 0.3 µM,–,< 10 µM,< 5 µM
"CCO/N=C1\CC2(CCC2)Sc2c(C)c(C)c(O)c(C)c21 [6′-hydroxy-5′,7′,8′-trimethylspiro[cyclobutane-1,2′-thiochromen]-4′(3′H)-one O-ethyloxime]",< 0.3 µM,–,< 10 µM,< 5 µM
"CCO/N=C1\CC2(CCC2)Sc2cc(C)c(O)c(C)c21 [6′-hydroxy-5′,7′-dimethylspiro[cyclobutane-1,2′-thiochromen]-4′(3′H)-one O-ethyloxime]",< 0.3 µM,–,< 10 µM,< 5 µM
"CO/N=C1\CC2(CCC2)Sc2cc(C)c(O)c(C)c21 [6′-hydroxy-5′,7′-dimethylspiro[cyclobutane-1,2′-thiochromen]-4′(3′H)-one O-methyloxime]",< 0.3 µM,–,< 10 µM,< 5 µM
"Cc1c(O)cc2c(c1C)OCC1(CCC1)C2 [7,8-dimethylspiro[chroman-3,1′-cyclobutan]-6-ol]",< 0.3 µM,–,< 10 µM,< 5 µM
"Cc1c(O)cc2c(c1C)OCC1(CC1)C2 [7,8-dimethylspiro[chroman-3,1′-cyclopropan]-6-ol]",< 0.3 µM,–,< 10 µM,< 5 µM
"Cc1c(O)c(-c2cc3ccccc3o2)c(C)c2c1CCC(C)(C)O2 [7-(1-benzofuran-2-yl)-2,2,5,8-tetramethylchroman-6-ol]",–,< 5 µM,–,–
"Cc1c(O)c(C(C)(C)C)cc2c1CC1(CCC1)CN2c1ccc(O)cn1 [7′-tert-butyl-1′-(5-hydroxypyridin-2-yl)-5′-methyl-2′,4′-dihydro-1′H-spiro[cyclobutane-1,3′-quinolin]-6′-ol]",–,< 5 µM,–,–
"CCONCc1c(C)c(O)c(C)c2c1OC1(CCC1)CC2 [8-[(ethoxyamino)methyl]-5,7-dimethyl-3,4-dihydrospiro[chromene-2,1′-cyclobutan]-6-ol]",< 0.3 µM,–,< 10 µM,< 5 µM
"CONCc1c(C)c(O)c(C)c2c1OC1(CCC1)CC2 [8-[(methoxyamino)methyl]-5,7-dimethyl-3,4-dihydrospiro[chromene-2,1′-cyclobutan]-6-ol]",< 0.3 µM,–,< 10 µM,< 5 µM
